From article PMC11472320, “Computationally Driven Discovery of a BCR-ABL1 Kinase Inhibitor with Activity in Multidrug-Resistant Chronic Myeloid Leukemia” (Journal of Medicinal Chemistry, 2024)
“And” between values parts separate entries of the source, which are not always exact repeats. Equal values may be shown once. Read-outs that look alike come from different tables or passages of the source.

Assays:
[1] = cited from earlier work
[2] = pH 7.4; cited from earlier work
[3] = parameters: method as in earlier work; details: human plasma; cited from earlier work
P-glycoprotein (P-gp) = details: Figure 1A; cited from earlier work
MDCKII-MDR1 cells [4] = details: cited from earlier work
[5] = pH 7.4; cited from earlier work; remark: listed apart in the source
[6] = Abraham ANMR value by NMR (CDCl3 vs DMSO-d6); format: physicochemical
From the text: Previously, intramolecular N–H–F hydrogen bonds (HBs) have been proposed as a strategy to reduce P-gp-mediated efflux and improve passive permeability, as highlighted in the discovery of the brain-penetrant EGFR inhibitor, AZD-3759 (Figure 2A).[37]−[40] […] Consistent with this work, we conducted an NMR study of the EGFR inhibitor 7a and the BCR-ABL1 inhibitor 8a in deuterated chloroform (CDCl3) and in the more polar, HB-accepting dimethyl sulfoxide (DMSO-d6). […] This finding is further supported by the lack of ^1JNH-F coupling (≤1 Hz) in 7a and 8a, as contrasted with bona fide intramolecular HBs to fluorine, which typically have ^1JNH-F coupling constants >10 Hz as exemplified by 9 with its ^1JNH-F of 19.1 Hz.[41],[43]

[7] = cited from earlier work; remark: listed apart in the source
[8] = cited from earlier work; remark: listed apart in the source
[9] = Metabolic stability in hepatocytes; format: in vitro ADME, human; details: for hepatocyte CLint: both sexes, read-out: HEPClint (H); for hepatocyte CLint / t1/2 (H): human hepatocytes
From the text: Metabolic stability in hepatocytes
Table S4. Hepatocyte details used in the hepatocyte stability assay.
Human Hepatocytes, Mixed-Gender BiolVT (Cat No. X008001)
Mouse Hepatocytes, Male-Gender BiolVT (Cat No. M005052)

in vitro [10] = details: human, Caco-2
in vitro [11] = details: dog, MDCK-MDR1
MDR1 (P-gp) = test: in vitro; details: dog, MDCK-MDR1
MDR1 = test: in vitro; details: dog, MDCK-MDR1
Lipophilicity logD7.4 = format: physicochemical; details: pH 7.4
Aqueous solubility = format: physicochemical; details: pH 7.4
MDCKII-MDR1 cells [12] = test: MDCKII-MDR1 permeability; details: for Recovery% (BL-AP): Table S7; for MDCKII-MDR1 Efflux Ratio: n = 2
Ph+ CML = test: Activity in Ph+ CML (Figure 2B annotation); format: cell-based; details: annotation in Figure 2B
Caco-2 cells = test: Caco-2 permeability; details: for Recovery% (BL-AP) / efflux ratio: Table S9
PFPK5(P.falciparum) = target: T1, PFPK5(P.falciparum) (Plasmodium falciparum, UniProt P61075); test: KINOMEScan; format: binding; details: read-out: Percent Control
T1 construct: purchased Eurofins DiscoverX (KINOMEscan)

PRKCE = target: T2, PRKCE (Homo sapiens, UniProt Q02156); test: KINOMEScan; format: binding; details: read-out: Percent Control
T2 construct: purchased Eurofins DiscoverX (KINOMEscan)

PRKCQ = target: T3, PRKCQ (Homo sapiens, UniProt Q04759); test: KINOMEScan; format: binding; details: read-out: Percent Control
T3 construct: purchased Eurofins DiscoverX (KINOMEscan)

CDC2L5 = target: T4, CDC2L5 (Homo sapiens, UniProt Q14004); test: KINOMEScan; format: binding; details: read-out: Percent Control
T4 construct: purchased Eurofins DiscoverX (KINOMEscan)

PKNB(M.tuberculosis) = target: T5, PKNB(M.tuberculosis) (Mycobacterium tuberculosis, UniProt P9WI81); test: KINOMEScan; format: binding; details: read-out: Percent Control
T5 construct: purchased Eurofins DiscoverX (KINOMEscan)

PRKCI = target: T6, PRKCI (Homo sapiens, UniProt P41743); test: KINOMEScan; format: binding; details: read-out: Percent Control
T6 construct: purchased Eurofins DiscoverX (KINOMEscan)

PRKCD = target: T7, PRKCD (Homo sapiens, UniProt Q05655); test: KINOMEScan; format: binding; details: read-out: Percent Control
T7 construct: purchased Eurofins DiscoverX (KINOMEscan)

PRKD3 = target: T8, PRKD3 (Homo sapiens, UniProt O94806); test: KINOMEScan; format: binding; details: read-out: Percent Control
T8 construct: purchased Eurofins DiscoverX (KINOMEscan)

PFCDPK1(P.falciparum) = target: T9, PFCDPK1(P.falciparum) (Plasmodium falciparum, UniProt P62344); test: KINOMEScan; format: binding; details: read-out: Percent Control
T9 construct: purchased Eurofins DiscoverX (KINOMEscan)

PRP4 = target: T10, PRP4 (Homo sapiens, UniProt Q13523); test: KINOMEScan; format: binding; details: read-out: Percent Control
T10 construct: purchased Eurofins DiscoverX

PRKCH = target: T11, PRKCH (Homo sapiens, UniProt P24723); test: KINOMEScan; format: binding; details: read-out: Percent Control
T11 construct: purchased Eurofins DiscoverX (KINOMEscan)

PRKD1 = target: T12, PRKD1 (Homo sapiens, UniProt Q15139); test: KINOMEScan; format: binding; details: read-out: Percent Control
T12 construct: purchased Eurofins DiscoverX (KINOMEscan)

BCR-ABL1 wt = BCR-ABL1 wt (Homo sapiens, UniProt P00519); test: KinaseProfiler enzymatic radiometric kinase assay; details: read-out: Kinase IC50 BCR-ABL1 wt; [ATP] = 10 µM, n = 2
cSRC wt = cSRC wt (Homo sapiens, UniProt P12931); test: KinaseProfiler enzymatic radiometric kinase assay
[13] = Plasma protein binding by equilibrium dialysis; format: in vitro ADME; details: human plasma
mutant BCR-ABL1 kinases = test: Biochemical kinase inhibition, summary statements; parameters: species or system human; details: read-out: IC50 against mutant BCR-ABL1 kinases

T12 sequence (Q15139 whole entry): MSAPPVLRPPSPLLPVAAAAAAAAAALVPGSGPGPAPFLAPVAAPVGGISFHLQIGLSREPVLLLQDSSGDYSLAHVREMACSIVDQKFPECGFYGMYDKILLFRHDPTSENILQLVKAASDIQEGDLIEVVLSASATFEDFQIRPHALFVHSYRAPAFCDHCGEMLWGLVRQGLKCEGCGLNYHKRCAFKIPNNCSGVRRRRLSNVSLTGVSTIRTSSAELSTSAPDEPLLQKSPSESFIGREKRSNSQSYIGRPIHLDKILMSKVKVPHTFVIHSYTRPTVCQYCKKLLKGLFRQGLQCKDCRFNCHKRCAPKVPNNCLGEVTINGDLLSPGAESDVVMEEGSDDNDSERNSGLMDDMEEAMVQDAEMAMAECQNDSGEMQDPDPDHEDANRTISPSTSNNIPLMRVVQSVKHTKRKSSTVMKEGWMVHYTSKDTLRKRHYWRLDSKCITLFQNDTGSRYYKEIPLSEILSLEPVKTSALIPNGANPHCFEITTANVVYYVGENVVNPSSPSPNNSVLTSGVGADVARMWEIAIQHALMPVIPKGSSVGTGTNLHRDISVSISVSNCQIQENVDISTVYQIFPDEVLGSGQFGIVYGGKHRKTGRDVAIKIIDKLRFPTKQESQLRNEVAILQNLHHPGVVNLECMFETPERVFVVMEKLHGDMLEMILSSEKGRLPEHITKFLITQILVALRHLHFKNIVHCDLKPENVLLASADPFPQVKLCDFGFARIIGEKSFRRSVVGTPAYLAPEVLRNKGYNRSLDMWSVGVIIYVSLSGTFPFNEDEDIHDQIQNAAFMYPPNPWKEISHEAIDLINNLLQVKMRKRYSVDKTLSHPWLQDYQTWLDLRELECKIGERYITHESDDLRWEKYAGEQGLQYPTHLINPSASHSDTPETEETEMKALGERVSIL
T1 sequence (P61075 whole entry): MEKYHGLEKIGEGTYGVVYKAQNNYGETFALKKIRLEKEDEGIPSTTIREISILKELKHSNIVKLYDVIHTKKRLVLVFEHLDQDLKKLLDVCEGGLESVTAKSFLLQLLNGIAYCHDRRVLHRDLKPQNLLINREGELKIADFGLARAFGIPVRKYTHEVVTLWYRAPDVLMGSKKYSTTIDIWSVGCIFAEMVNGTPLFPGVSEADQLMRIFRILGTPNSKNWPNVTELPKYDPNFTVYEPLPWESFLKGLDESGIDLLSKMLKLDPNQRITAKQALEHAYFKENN
T2 sequence (Q02156 whole entry): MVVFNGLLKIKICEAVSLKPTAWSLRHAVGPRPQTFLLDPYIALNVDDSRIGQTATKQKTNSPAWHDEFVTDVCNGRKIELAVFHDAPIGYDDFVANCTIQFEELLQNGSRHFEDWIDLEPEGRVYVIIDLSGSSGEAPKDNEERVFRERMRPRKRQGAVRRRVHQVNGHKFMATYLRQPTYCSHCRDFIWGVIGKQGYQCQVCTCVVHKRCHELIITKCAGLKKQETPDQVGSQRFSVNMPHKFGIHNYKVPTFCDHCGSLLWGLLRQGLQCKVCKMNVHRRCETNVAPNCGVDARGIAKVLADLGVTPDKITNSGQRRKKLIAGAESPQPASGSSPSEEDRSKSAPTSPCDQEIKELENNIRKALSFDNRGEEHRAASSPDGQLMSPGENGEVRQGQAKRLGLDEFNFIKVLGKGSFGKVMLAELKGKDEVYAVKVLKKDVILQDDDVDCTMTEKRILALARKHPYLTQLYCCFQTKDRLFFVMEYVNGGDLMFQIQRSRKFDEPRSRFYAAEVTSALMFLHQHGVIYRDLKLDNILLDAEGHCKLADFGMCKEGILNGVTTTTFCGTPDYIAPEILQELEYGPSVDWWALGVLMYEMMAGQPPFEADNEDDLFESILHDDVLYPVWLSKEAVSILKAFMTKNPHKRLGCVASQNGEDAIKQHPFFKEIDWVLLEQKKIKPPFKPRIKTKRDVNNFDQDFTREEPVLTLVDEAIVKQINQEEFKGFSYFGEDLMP
T11 sequence (P24723 whole entry): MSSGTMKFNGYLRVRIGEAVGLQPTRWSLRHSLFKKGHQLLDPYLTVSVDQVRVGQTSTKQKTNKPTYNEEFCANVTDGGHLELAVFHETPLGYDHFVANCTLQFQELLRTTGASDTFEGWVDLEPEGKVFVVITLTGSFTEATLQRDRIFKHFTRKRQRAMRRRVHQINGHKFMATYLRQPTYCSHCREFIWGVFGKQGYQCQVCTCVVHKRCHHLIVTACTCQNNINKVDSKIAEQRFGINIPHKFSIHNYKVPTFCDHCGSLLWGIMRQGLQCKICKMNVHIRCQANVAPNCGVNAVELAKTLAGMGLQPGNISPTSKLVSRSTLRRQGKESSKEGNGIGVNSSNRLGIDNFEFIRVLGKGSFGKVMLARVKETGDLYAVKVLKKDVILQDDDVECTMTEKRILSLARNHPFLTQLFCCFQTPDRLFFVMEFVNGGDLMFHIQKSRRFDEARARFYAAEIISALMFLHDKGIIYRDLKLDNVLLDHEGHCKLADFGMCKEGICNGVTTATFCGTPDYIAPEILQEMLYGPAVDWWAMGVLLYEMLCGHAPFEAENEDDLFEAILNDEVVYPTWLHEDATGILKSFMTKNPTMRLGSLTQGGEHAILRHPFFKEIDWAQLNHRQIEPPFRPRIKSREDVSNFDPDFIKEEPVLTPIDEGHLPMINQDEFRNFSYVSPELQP
T4 sequence (Q14004 whole entry): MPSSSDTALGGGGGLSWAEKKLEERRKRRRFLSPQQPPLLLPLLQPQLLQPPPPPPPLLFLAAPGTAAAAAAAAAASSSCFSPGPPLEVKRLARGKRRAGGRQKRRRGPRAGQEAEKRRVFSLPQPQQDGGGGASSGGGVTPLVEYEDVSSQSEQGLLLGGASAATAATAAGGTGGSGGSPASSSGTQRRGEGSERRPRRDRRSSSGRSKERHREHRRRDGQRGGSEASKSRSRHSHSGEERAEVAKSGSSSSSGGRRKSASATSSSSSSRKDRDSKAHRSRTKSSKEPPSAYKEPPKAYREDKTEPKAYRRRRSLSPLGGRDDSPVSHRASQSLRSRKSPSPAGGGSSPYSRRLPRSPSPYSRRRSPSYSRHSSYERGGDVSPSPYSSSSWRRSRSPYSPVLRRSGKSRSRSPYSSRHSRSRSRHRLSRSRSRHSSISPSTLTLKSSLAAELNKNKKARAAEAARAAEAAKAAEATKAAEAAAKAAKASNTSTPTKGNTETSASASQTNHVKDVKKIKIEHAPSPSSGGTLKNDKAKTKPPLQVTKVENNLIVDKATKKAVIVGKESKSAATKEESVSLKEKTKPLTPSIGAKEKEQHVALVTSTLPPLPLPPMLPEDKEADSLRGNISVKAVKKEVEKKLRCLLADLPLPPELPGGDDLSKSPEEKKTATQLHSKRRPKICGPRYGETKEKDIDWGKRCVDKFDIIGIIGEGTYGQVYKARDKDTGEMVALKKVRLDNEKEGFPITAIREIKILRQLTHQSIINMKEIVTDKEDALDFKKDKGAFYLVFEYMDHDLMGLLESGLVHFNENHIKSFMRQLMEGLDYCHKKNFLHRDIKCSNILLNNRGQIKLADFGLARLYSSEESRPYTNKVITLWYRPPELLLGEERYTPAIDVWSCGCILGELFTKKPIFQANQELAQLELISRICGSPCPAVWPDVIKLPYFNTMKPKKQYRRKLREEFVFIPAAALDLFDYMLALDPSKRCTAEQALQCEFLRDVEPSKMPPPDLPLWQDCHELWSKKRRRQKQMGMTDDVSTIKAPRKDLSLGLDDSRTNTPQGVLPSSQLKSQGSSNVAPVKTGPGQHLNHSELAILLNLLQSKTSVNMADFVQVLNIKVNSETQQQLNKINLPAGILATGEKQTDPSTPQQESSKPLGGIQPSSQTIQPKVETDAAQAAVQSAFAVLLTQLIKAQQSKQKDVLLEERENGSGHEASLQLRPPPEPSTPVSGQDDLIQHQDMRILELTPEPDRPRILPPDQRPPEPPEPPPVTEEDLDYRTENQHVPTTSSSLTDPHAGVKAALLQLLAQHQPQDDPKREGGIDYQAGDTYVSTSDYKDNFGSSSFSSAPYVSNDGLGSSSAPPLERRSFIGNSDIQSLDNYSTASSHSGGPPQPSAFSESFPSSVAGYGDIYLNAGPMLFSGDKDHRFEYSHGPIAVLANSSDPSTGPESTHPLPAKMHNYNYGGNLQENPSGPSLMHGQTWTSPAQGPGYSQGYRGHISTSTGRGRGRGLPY
T9 sequence (P62344 whole entry): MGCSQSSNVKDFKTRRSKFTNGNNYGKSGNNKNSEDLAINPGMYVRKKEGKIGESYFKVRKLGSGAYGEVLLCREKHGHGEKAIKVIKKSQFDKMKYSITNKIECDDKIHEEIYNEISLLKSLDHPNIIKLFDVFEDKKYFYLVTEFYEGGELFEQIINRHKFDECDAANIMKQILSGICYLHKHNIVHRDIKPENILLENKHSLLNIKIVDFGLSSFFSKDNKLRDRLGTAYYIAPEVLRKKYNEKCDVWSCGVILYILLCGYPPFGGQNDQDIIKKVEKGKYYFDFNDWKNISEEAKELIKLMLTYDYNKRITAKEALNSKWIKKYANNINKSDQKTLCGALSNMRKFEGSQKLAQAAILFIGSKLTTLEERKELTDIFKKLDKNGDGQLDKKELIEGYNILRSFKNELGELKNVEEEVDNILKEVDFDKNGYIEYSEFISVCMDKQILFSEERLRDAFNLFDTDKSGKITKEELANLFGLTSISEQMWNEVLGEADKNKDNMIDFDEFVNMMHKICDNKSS

COc1cc(Nc2c(C#N)cnc3cc(OCCCN4CCN(C)CC4)c(OC)cc23)c(Cl)cc1Cl [Bosutinib, bosutinib]
Remaining Percentages ([1]; 0.5 min): 100.00%
Remaining Percentages ([1]; 15 min): 73.99%
Remaining Percentages ([1]; 60 min): 53.95%
Remaining Percentages ([1]; 90 min): 34.15%
Remaining Percentages ([1]; 120 min): 20.73%
logD7.4 [2]: 3.1
%Recovery [3]: 94.01%
%Unbound [3]: 4.52%
P-gp efflux status (P-glycoprotein (P-gp)): P-gp Substrate
Papp(a-b) (MDCKII-MDR1 cells [4]; Table S7): 0.38 10-6 cm/s
Recovery% (AP-BL) (MDCKII-MDR1 cells [4]; Table S7): 56.02%
Recovery% (BL-AP) (MDCKII-MDR1 cells [4]; Table S7): 65.52%
MDCKII-MDR1 Papp (a-b) (MDCKII-MDR1 cells [4]; a-b): 4 nm/s
P-gp efflux status (MDCKII-MDR1 cells [4]): P-gp Substrate
Aq. Sol. [5]: 14 µM

COc1cc2ncnc(Nc3cccc(Cl)c3F)c2cc1OCCON1CCN(C)CC1 [7a]
Abraham ANMR Value (aniline N-H) [6]: > 0.30 and 0.31
AMES [7]: Negative
P-gp efflux status (MDCKII-MDR1 cells [4]): Not a P-gp Substrate
Micronucleus [8]: Negative

COc1cc2c(Nc3cccc(Cl)c3F)c(C#N)cnc2cc1OCCON1CCN(C)CC1 [11a, 4-((3-Chloro-2-fluorophenyl)amino)-6-methoxy-7-(2-((4-methylpiperazin-1-yl)oxy)ethoxy)quinoline-3-carbonitrile]
Remaining Percentages ([9]; 0.5 min): 100.00%
Remaining Percentages ([9]; 15 min): 82.49%
Remaining Percentages ([9]; 30 min): 66.92%
Remaining Percentages ([9]; 60 min): 45.06%
Remaining Percentages ([9]; 90 min): 29.85%
Remaining Percentages ([9]; 120 min): 18.60%
hepatocyte CLint [9]: 27.9 µL/min/1e6 cells
t1/2 (H) [9]: 49.7 min
Abraham ANMR Value (aniline N-H) [6]: 0.40
Papp A→B (in vitro [10]): 3.66 ×10⁻⁶ cm/s
Papp B→A (in vitro [10]): 27.4 ×10⁻⁶ cm/s
efflux ratio (in vitro [10]): 7.4
recovery (in vitro [10]): 60.5%
recovery (in vitro [11]): 71.6%
Papp A→B (MDR1 (P-gp)): 7.2 ×10⁻⁶ cm/s
Papp B→A (MDR1 (P-gp)): 29.6 ×10⁻⁶ cm/s
Papp A→B (MDR1): 7.16 ×10⁻⁶ cm/s
Papp B→A (MDR1): 29.6 ×10⁻⁶ cm/s
efflux ratio (MDR1): 4.15
logD (Lipophilicity logD7.4): 3.3
Aq. Sol. (Aqueous solubility): 14 µM
P-gp efflux status (MDCKII-MDR1 cells [12]): Moderate P-gp Substrate
Recovery% (BL-AP) (MDCKII-MDR1 cells [12]): 85.59%
MDCKII-MDR1 Efflux Ratio (MDCKII-MDR1 cells [12]): 4.1
Activity in Ph+ CML (Ph+ CML): Poor Activity
Recovery% (BL-AP) (Caco-2 cells): 80.51%
efflux ratio (Caco-2 cells): 7.49
Caco-2 Papp (a-b) (Caco-2 cells): 37 nm/s
Caco-2 Papp (b-a) (Caco-2 cells): 274 nm/s

COc1cc2c(Nc3ccc(Cl)c(OC)n3)c(C#N)cnc2cc1OCCON1CCN(C)CC1 [16a, 4-((5-Chloro-6-methoxypyridin-2-yl)amino)-6-methoxy-7-(2-((4-methylpiperazin-1-yl)oxy)ethoxy)quinoline-3-carbonitrile]
remaining binding at 1 µM (PFPK5(P.falciparum)): 100%
remaining binding at 1 µM (PRKCE): 70%
remaining binding at 1 µM (PRKCQ): 30%
remaining binding at 1 µM (CDC2L5): 100%
remaining binding at 1 µM (PKNB(M.tuberculosis)): 53%
remaining binding at 1 µM (PRKCI): 61%
remaining binding at 1 µM (PRKCD): 42%
remaining binding at 1 µM (PRKD3): 58%
remaining binding at 1 µM (PFCDPK1(P.falciparum)): 18%
remaining binding at 1 µM (PRP4): 33%
remaining binding at 1 µM (PRKCH): 84%
remaining binding at 1 µM (PRKD1): 78%

COc1cc(Nc2c(C#N)cnc3cc(OCCON4CCN(C)CC4)c(OC)cc23)c(F)cc1Cl [8a, 4-((4-Chloro-2-fluoro-5-methoxyphenyl)amino)-6-methoxy-7-(2-((4-methylpiperazin-1-yl)oxy)ethoxy)quinoline-3-carbonitrile]
Remaining Percentages ([9]; 0.5 min): 100.00%
Remaining Percentages ([9]; 15 min): 69.28%
Remaining Percentages ([9]; 30 min): 52.48%
Remaining Percentages ([9]; 60 min): 29.45%
Remaining Percentages ([9]; 90 min): 15.72%
Remaining Percentages ([9]; 120 min): 9.48%
hepatocyte CLint [9]: 40.5 µL/min/1e6 cells
t1/2 (H) [9]: 34.2 min
IC50 (BCR-ABL1 wt): 1 nM
Abraham ANMR Value (aniline N-H) [6]: > 0.30 and 0.40
Papp A→B (in vitro [10]): 1.94 ×10⁻⁶ cm/s
Papp B→A (in vitro [10]): 12.1 ×10⁻⁶ cm/s
efflux ratio (in vitro [10]): 6.4
recovery (in vitro [10]): 61.2%
IC50 (cSRC wt): 2 nM
recovery (in vitro [11]): 79.8%
Papp A→B (MDR1 (P-gp)): 0.7 ×10⁻⁶ cm/s
Papp B→A (MDR1 (P-gp)): 19.3 ×10⁻⁶ cm/s
Papp A→B (MDR1): 0.73 ×10⁻⁶ cm/s
efflux ratio (MDR1): 26.4
logD (Lipophilicity logD7.4): 3.4
Aq. Sol. (Aqueous solubility): 43 µM
fraction unbound ([13]; both sexes): 0.0558
recovery ([13]; both sexes): 99.9%
remaining at 6 h ([13]; both sexes, 6 h): 92.7%
%Unbound [13]: 5.58%
P-gp efflux status (MDCKII-MDR1 cells [12]): P-gp Substrate
Recovery% (BL-AP) (MDCKII-MDR1 cells [12]): 64.87%
MDCKII-MDR1 Efflux Ratio (MDCKII-MDR1 cells [12]): 27.6
Activity in Ph+ CML (Ph+ CML): Moderate Activity
Recovery% (BL-AP) (Caco-2 cells): 72.31%
efflux ratio (Caco-2 cells): 6.22
Caco-2 Papp (a-b) (Caco-2 cells): 19 nm/s
Caco-2 Papp (b-a) (Caco-2 cells): 121 nm/s
IC50 (mutant BCR-ABL1 kinases): < 1 nM
